# Assay results published in patent publication US7816075B2, “Methods and compositions using stearoyl-CoA desaturase to identify triglyceride reducing therapeutic agents” (Xenon Pharmaceuticals Inc., priority 2000, dated 2010).
# Key:
# [1] = system: human SCD promoter; experiment: Human SCD promoter-luciferase reporter (pSCD-500) in transfected HepG2 cells; assay type: cell-based; details: for SCD promoter activity: HepG2 cells co-transfected with mature SREBP-1a, in the presence of cholesterol, fatty acids as albumin complexes (data not shown)
# Protocol: The decrease in promoter activity in the reporter construct correlated with decreases in endogenous SCD mRNA and protein levels. […] Our studies indicate that like the mouse SCD1 gene, the human SCD gene is regulated by polyunsaturated fatty acids and cholesterol at the level of gene transcription and that SREBP plays a role in the transcriptional activation of this gene. Cell Culture and DNA transfections—HepG2 cells, were grown in Low Glucose DMEM supplemented with 10% Fetal Bovine Serum and 1% Penicillin/Streptomycin solution and maintained at 37 C, 5% CO2 in a humidified incubator. Cells were passaged into 6 cm dishes to give 40-70% confluence in about 12-16 hours. Cells were then transfected with 5 μg plasmid DNA per plate of pSCD-500 or the Basic PGL3 reporter as well as well as the pRL-TK, internal controls (Promega) using the LT-1 transfection reagent (Pan Vera). After 48 hours, cells were rinsed with PBS and then treated in Williams' E Media, a fatty acid-free media, containing insulin, dexamethasone, and appropriate concentrations of albumin-conjugated fatty acids as indicated in figures and legends. Cells were also treated with ethanol alone (as control) or cholesterol (10 μg/mL) and 25-OH cholesterol (1 μg/mL) dissolved in ethanol. After an additional 24 h, extracts were prepared and assayed for luciferase activity. Non-transfected cells were used as the blank and Renilla Luciferase was used as an internal control. Cell extracts were assayed for protein according to Lowry, and all results were normalized to protein concentration as well as to renilla luciferase counts. Each experiment was repeated at least three times, and all data are expressed as means±SEM. […] To observe the regulatory effects of mature SREBP-1a and PUFAs on the activity of SCD promoters, HepG2 hepatic cells were transiently co-transfected with 20 ng (per 6-cm dish) of plasmid DNA containing the human SCD promoter as described above but this time the transfections were carried out in the presence of cholesterol to inhibit the maturation of the endogenous SREBP and thus ensure that there was little mature form of the endogenous SREBP present in the cells. After transfection, the cells were then treated with, arachidonic acid, EPA and DHA as albumin complexes and luciferase activity was then assayed using a luminometer. If SREBP mediates PUFA repression of the human SCD gene, SCD promoter activity would not diminish upon treatment the transfected cells with PUFA.
# [2] = system: human SCD mRNA expression; experiment: Northern blot of SCD mRNA in treated HepG2 cells; assay type: cell-based; details: range of doses, cholesterol 10 μg/ml with 1 μg/ml 25-hydroxycholesterol, FIG. 15
# Protocol: FIG. 15. Human HepG2 cells cultured and treated with a range of doses of arachidonic acid, DHA or 10 μg/ml cholesterol or EPA as indicated. Total mRNA was isolated and quantified. Isolation and Analysis of RNA-Total RNA was isolated from HepG2 cells using the acid guanidinium-phenol-chloroform extraction method. Twenty micrograms of total RNA was separated by 0.8% agarose/2.2 M formaldehyde gel electrophoresis and transferred onto nylon membrane. The membrane was hybridized with ^32P-labeled human SCD cDNA probe generated by PCR as follows: pAL15 probe was used as control for equal loading. We tested whether the human SCD gene expression was also repressed by cholesterol and polyunsaturated fatty acids. Human HepG2 cells were cultured and then treated with 100 μM arachidonic acid, DHA or 10 μg/ml cholesterol and 1 μg/ml of 25-hydroxycholesterol cholesterol as we have described previously. Total mRNA was isolated and subjected to northern blot analysis using a probe corresponding to the human cDNA and generated by the PCR method using primers based on published human SCD cDNA sequence.
# [3] = target: T1, SCD1 (Mus musculus, UniProt P13516); experiment: SCD1 desaturase activity assay, transfer of 3H from 3H-stearoyl CoA to water in liver microsomes; assay type: biochemical; details: for inhibition of SCD1: pre-conjugated to CoA (microsomes incubated with CoA and ATP before 3H-stearoyl CoA)
# T1 construct: from tissue; host or cells: mouse liver microsomes (wild type, after a high carbohydrate fat-free diet)
# T1 sequence (P13516 1-355): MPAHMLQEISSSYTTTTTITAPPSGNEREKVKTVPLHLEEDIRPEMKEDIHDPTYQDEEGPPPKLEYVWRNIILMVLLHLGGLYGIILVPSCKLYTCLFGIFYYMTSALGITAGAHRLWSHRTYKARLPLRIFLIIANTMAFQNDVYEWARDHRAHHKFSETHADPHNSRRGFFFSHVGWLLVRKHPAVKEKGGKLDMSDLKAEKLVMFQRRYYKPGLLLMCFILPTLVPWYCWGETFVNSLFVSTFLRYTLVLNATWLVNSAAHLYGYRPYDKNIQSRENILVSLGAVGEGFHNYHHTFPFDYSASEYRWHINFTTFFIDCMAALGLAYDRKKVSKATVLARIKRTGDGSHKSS
# Protocol: Microsomes from wild type livers were used for this experiment. A turnover number for SCD1 activity under these conditions was estimated at 2 nmol/min/mg protein, which is about half that observed at 37° C.
# Livers were collected from wild type and SCD1 knockout mice following 3 days on a high carbohydrate fat-free diet (this induces SCD1 expression in liver by about 50-fold), homogenized and a portion used for microsome purification. ^3H-water production was determined for 15 minutes at RT (room temperature) in both homogenate and microsome preparations at equivalent protein concentration, followed by quenching the reaction with acid and using charcoal to separate substrate from product. Quenching the sample with acid prior to the addition of substrate offers a blank, or control containing background radioactivity without any desaturation reaction. […] The “window”, or SCD1-dependent desaturation in this assay, is a highly visible and significant 160-fold difference between wild type and SCD1 knockout microsomes.
# Microsomes from wild type mice were used to test the effectiveness of three known inhibitors of SCD1: conjugated linoleic acid (CLA), 9-thia stearic acid (9-thia) and sterculic acid (SA). […] This experiment establishes that SCD1 activity can be inhibited with known inhibitors but they appear to require conjugation with CoA. An important use of this screening assay is to find small molecules that are potent inhibitors of SCD1 biological activity without conjugation to CoA.
# In a preferred embodiment, the assay makes use of ^3H-stearoyl CoA (with the ^3H on the 9 and 10 carbon atoms), the substrate for SCD1. Desaturation by SCD1, produces oleoyl CoA and 3H-water molecules. The reaction is run at room temperature, quenched with acid and then activated charcoal is used to separate unreacted substrate from the radioactive water product. The charcoal is sedimented and amount of radioactivity in the supernatant is determined by liquid scintillation counting. This assay is specific for SCD1-dependent desaturation as judged by the difference seen when comparing the activity in wild type and SCD1-knockout tissues. Further, the method is easily adapted to high throughput as it is cell-free, conducted at room temperature and is relatively brief (1 hour reaction time period versus previous period of 2 days). This procedure is illustrated more fully in FIGS. 17 to 20.
# [4] = system: SCD1 mRNA; details: known from the literature; cited from earlier work
# [5] = target: T2, SCD (Homo sapiens, UniProt O00767); details: known from the literature; cited from earlier work
# T2 sequence (O00767 1-359): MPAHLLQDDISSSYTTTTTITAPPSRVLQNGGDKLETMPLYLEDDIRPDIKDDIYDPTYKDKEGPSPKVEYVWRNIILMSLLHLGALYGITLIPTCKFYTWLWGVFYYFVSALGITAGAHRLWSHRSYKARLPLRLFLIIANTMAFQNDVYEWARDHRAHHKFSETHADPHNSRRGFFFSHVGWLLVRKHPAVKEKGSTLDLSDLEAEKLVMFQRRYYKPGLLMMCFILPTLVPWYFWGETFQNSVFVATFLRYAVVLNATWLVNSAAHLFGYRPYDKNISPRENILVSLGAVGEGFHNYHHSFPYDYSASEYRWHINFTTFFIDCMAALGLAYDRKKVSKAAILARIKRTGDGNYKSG
# [6] = system: SCD protein; experiment: Western blot of SCD protein in treated HepG2 cells; assay type: cell-based, human; details: western blot of protein extracts (data not shown)
# Protocol: Immunoblotting—Cell extracts were prepared from HepG2 cells that had been treated with the various fatty acids or cholesterol as described by Heinemann et al (17). The same amount of protein (60 μg) from each fraction was subjected to 10% SDS-polyacrylamide gel electrophoresis and transferred to Immobilon-P transfer membranes at 4° C. After blocking with 10% non-fat milk in TBS buffer (pH 8.0) plus 0.5% Tween at 4° C. overnight, the membrane was washed and incubated with rabbit anti-rat SCD as primary antibody (17) and goat anti-rabbit IgG-HRP conjugate as the secondary antibody. Visualization of the SCD protein was performed with ECL western blot detection kit. We tested whether the human SCD gene expression was also repressed by cholesterol and polyunsaturated fatty acids. Human HepG2 cells were cultured and then treated with 100 μM arachidonic acid, DHA or 10 μg/ml cholesterol and 1 μg/ml of 25-hydroxycholesterol cholesterol as we have described previously. Total mRNA was isolated and subjected to northern blot analysis using a probe corresponding to the human cDNA and generated by the PCR method using primers based on published human SCD cDNA sequence.
# [7] = added as the free fatty acid, microsomes from wild type mice (FIG. 19 panel A)
compound,measurement,setting,value
"CCCCC/C=C\C/C=C\C/C=C\C/C=C\CCCC(=O)O [AA, arachidonic acid]",SCD promoter activity,[1],continued to repress SCD promoter activity with only a slight attenuation
same,human SCD mRNA expression,[2],decreased the human SCD mRNA expression in a dose dependent manner
conjugated linoleic acid,suppression of SCD1 activity,[3]; [7],none were effective
same,inhibition of SCD1,[3]; FIG. 19 panel B,graded inhibition
CC/C=C\C/C=C\C/C=C\C/C=C\C/C=C\CCCC(=O)O [EPA],SCD promoter activity,[1],continued to repress SCD promoter activity with only a slight attenuation
"CCCCC/C=C\C=C\CCCCCCCCC(=O)O [Cis-12, trans-10 conjugated linoleic acid]",abundance of SCD1 mRNA,[4],reduce the abundance of SCD1 mRNA
same,inhibition of SCD enzyme activity,[5],effectively inhibit SCD enzyme activity
CC(C)CCC[C@@H](C)[C@H]1CC[C@H]2[C@@H]3CC=C4C[C@@H](O)CC[C@]4(C)[C@H]3CC[C@]12C [cholesterol],levels of the SCD protein,[6],decreased the levels of the SCD protein
same,SCD promoter-luciferase activity,[1]; transiently transfected HepG2 cells,decreased the SCD promoter-luciferase activity
same,human SCD mRNA expression,[2],decreased the human SCD mRNA expression in a dose dependent manner
"CCCCCC/C=C/C=C\CCCCCCCC(=O)O [Cis-9, trans-11 conjugated linoleic acid]",inhibition of SCD enzyme activity,[5],does not
CC/C=C\C/C=C\C/C=C\C/C=C\C/C=C\C/C=C\CCC(=O)O [DHA],SCD promoter activity,[1],continued to repress SCD promoter activity with only a slight attenuation
same,human SCD mRNA expression,[2],decreased the human SCD mRNA expression in a dose dependent manner
"CCCCCCCCC1=C(CCCCCCCC(=O)O)C1 [sterculic acid, 8-(2-octyl-cyclopropenyl)octanoic acid]",suppression of SCD1 activity,[3]; [7],none were effective
same,inhibition of SCD1,[3]; FIG. 19 panel B,graded inhibition
same,suppression of SCD1 activity,"[3]; pre-conjugated to CoA, preincubation condition, FIG. 19 panel B",~100%
